{
  "source": "patent US10414774B2",
  "about": "“Compound useful for altering the levels of bile acids for the treatment of diabetes and cardiometabolc disease” (Merck Sharp & Dohme Corp., priority 2016, dated 2019)",
  "data": [
    {"biological_target": "T1, Human CYP8B1 (Homo sapiens, UniProt Q9UNU6)", "T1 sequence (Q9UNU6 1-501)": "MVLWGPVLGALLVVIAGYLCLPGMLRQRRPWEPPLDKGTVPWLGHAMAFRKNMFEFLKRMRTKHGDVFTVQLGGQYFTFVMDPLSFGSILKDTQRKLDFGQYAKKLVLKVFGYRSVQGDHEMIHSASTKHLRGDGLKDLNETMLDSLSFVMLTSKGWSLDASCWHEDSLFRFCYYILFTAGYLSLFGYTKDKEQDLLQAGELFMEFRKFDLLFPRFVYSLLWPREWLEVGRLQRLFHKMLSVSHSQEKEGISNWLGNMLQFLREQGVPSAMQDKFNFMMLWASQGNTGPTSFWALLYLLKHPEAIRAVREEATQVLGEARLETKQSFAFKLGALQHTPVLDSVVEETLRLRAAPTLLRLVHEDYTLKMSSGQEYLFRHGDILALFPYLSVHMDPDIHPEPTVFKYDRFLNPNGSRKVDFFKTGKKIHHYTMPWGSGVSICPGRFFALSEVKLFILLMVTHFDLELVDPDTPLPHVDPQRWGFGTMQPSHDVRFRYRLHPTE", "experiment": "Human CYP8B1 Liver Microsome Assay", "conditions": "Human CYP8B1 IC50, human liver microsomes; substrate 7a-hydroxy-4-cholesten-3-one, NADPH; RapidFire MS detection of 7α,12α-dihydroxy-4-cholesten-3-one", "units": {"IC50": "nM"}, "values": [
      {"smiles": "CC[C@@H]1CN(c2c(C#N)cnc3c(F)c(OC)ccc23)CC[C@@H]1C(=O)N1CCn2c(nnc2C(F)(F)F)C1", "note": "[Example 74b, 4-[(3S,4S)-3-ethyl-4-{[3-(trifluoromethyl)-5,6-dihydro[1,2,4]triazolo[4,3-a]pyrazin-7(8H)-yl]carbonyl}piperidin-1-yl]-8-fluoro-7-methoxyquinoline-3-carbonitrile]", "IC50": 2.1},
      {"smiles": "C[C@@H]1CN(c2c(C#N)cnc3cc(Cl)ccc23)CC[C@@H]1C(=O)N1CCn2c(nnc2C(F)(F)F)C1", "note": "[Example 27, 7-chloro-4-[(3S,4S)-3-methyl-4-{[3-(trifluoromethyl)-5,6-dihydro[1,2,4]triazolo[4,3-a]pyrazin-7(8H)-yl]carbonyl}piperidin-1-yl]quinoline-3-carbonitrile]", "IC50": 0.74},
      {"smiles": "C[C@@H]1CN(c2c(C#N)cnc3cc(Br)ccc23)CC[C@@H]1C(=O)N1CCn2c(nnc2C(F)(F)F)C1", "note": "[Example 4, 7-bromo-4-[(3S,4S)-3-methyl-4-{[3-(trifluoromethyl)-5,6-dihydro[1,2,4]triazolo[4,5-a]pyrazin-7(8H)-yl]carbonyl}piperidin-1-yl]quinoline-3-carbonitrile]", "IC50": 0.36},
      {"smiles": "COc1ccc2c(N3CC[C@H](C(=O)N4CCn5c(nnc5C(F)(F)F)C4)[C@H](C4CC4)C3)c(C#N)cnc2c1F", "note": "[Example 77b, 4-[(3S,4S)-3-cyclopropyl-4-{[3-(trifluoromethyl)-5,6-dihydro[1,2,4]triazolo[4,3-a]pyrazin-7(8H)-yl]carbonyl}piperidin-1-yl]-8-fluoro-7-methoxyquinoline-3-carbonitrile]", "IC50": 1.8},
      {"smiles": "C[C@@H]1CN(c2c(C#N)cnc3cccnc23)CC[C@@H]1C(=O)N1CCn2c(nnc2C(F)(F)F)C1", "note": "[Example 33, 4-[(3S,4S)-3-methyl-4-{[3-(trifluoromethyl)-5,6-dihydro[1,2,4]triazolo[4,3-a]pyrazin-7(8H)-yl]carobnyl}piperidin-1-yl]-1,5-naphthyridine-3-carbonitrile]", "IC50": 1.3},
      {"smiles": "COc1ccc2c(N3CC[C@H](C(=O)N4CCn5c(nnc5C(F)F)C4)[C@H](C)C3)c(C#N)cnc2c1", "note": "[Example 70, 4-[(3S,4S)-4-{[3-(difluoromethyl)-5,6-dihydro[1,2,4]triazolo[4,3-a]pyrazin-7(8H)-yl]carbonyl}-3-methylpiperidin-1-yl]-7-methoxyquinoline-3-carbonitrile]", "IC50": 0.88},
      {"smiles": "Cc1nc2ccc(F)cc2c(N2CC[C@H](C(=O)N3CCn4c(nnc4C(F)(F)F)C3)[C@H](C)C2)c1C#N", "note": "[Example 29, 6-fluoro-2-methyl-4-[(3S,4S)-3-methyl-4-{[3-(trifluoromethyl)-5,6-dihydro[1,2,4]triazolo[4,3-a]pyrazin-7(8H)-yl]carbonyl}piperidin-1-yl]quinoline-3-carbonitrile]", "IC50": 9.4},
      {"smiles": "C[C@@H]1CN(c2c(C#N)c[n+]([O-])c3cc(OCC4CC4)ccc23)CC[C@@H]1C(=O)N1CCn2c(nnc2C(F)(F)F)C1", "note": "[Example 71, 7-(cyclopropylmethoxy)-4-[(3S,4S)-3-methyl-4-{[3-(trifluoromethyl)-5,6-dihydro[1,2,4]triazolo[4,3-a]pyrazin-7(8H)-yl]carbonyl}piperidin-1-yl]quinoline-3-carbonitrile 1-oxide]", "IC50": 0.54},
      {"smiles": "COc1cc2ncc(C#N)c(N3CC[C@H](C(=O)N4CCn5c(nnc5C(F)(F)F)C4)[C@H](C)C3)c2cc1Br", "note": "[Example 20, 6-bromo-7-methoxy-4-[(3S,4S)-3-methyl-4-{[3-(trifluoromethyl)-5,6-dihydro[1,2,4]triazolo[4,3-a]pyrazin-7(8H)-yl]carbonyl}piperidin-1-yl]quinoline-3-carbonitrile]", "IC50": 0.24},
      {"smiles": "C[C@H]1CN(c2c(C#N)cnc3c(F)c(Cl)ccc23)CC[C@H]1C(=O)N1CCn2c(nnc2C2CC2)C1", "note": "[Example 65, 7-chloro-4-{(3R,4R)-4-[(3-cyclopropyl-5,6-dihydro[1,2,4]triazolo[4,3-a]pyrazin-7(8H)-yl)carbonyl]-3-methylpiperidin-1-yl}-8-fluoroquinoline-3-carbonitrile]", "IC50": 318},
      {"smiles": "N#Cc1cnc2ccc(Cl)cc2c1N1CCC(F)(C(=O)N2CCn3c(nnc3C(F)(F)F)C2)CC1", "note": "[Example 120, 6-chloro-4-(4-fluoro-4-{[3-(trifluoromethyl)-5,6-dihydro[1,2,4]triazolo[4,3-a]pyrazin-7(8H)-yl]carbonyl}piperidin-1-yl)quinoline-3-carbonitrile]", "IC50": 169},
      {"smiles": "C[C@@H]1CN(c2c(C#N)cnc3ccc(Cl)cc23)CCN1C(=O)N1CCn2c(nnc2C(F)(F)F)C1", "note": "[Example 128, 6-chloro-4-[(3R)-3-methyl-4-{[3-(trifluoromethyl)-5,6-dihydro[1,2,4]triazolo[4,3-a]pyrazin-7(8H)-yl]carbonyl}piperazin-1-yl]quinoline-3-carbonitrile]", "IC50": 2.9},
      {"smiles": "CC(C)COc1ccc2c(N3CCC(C(=O)N4CCn5c(nnc5C(F)(F)F)C4)CC3)c(C#N)cnc2c1", "note": "[Example 69]", "IC50": 0.42},
      {"smiles": "CC1CN(c2c(C#N)cnc3ccc(Cl)cc23)CCC1C(=O)N1CCn2c(nnc2C(F)(F)F)C1", "note": "(stereo not shown) [Example 116, 6-chloro-4-(3-methyl-4-(3-(trifluoromethyl)-5,6,7,8-tetrahydro-[1,2,4]triazolo[4,3-a]pyrazine-7-carbonyl)piperidin-1-yl)quinoline-3-carbonitrile]", "IC50": 1.4},
      {"smiles": "C[C@@H]1CN(c2c(C#N)cnc3cc(C(F)F)ccc23)CC[C@@H]1C(=O)N1CCn2c(nnc2C(F)(F)F)C1", "note": "[Example 23, 7-(difluoromethyl)-4-((3S,4S)-3-methyl-4-(3-(trifluoromethyl)-5,6,7,8-tetrahydro-[1,2,4]trizolo[4,3-a]pyrazine-7-carbonyl)piperidin-1-yl)quinolone-3-carbonitrile]", "IC50": 0.5},
      {"smiles": "Cc1ccc2nc(C)c(C#N)c(N3CCC(C(=O)N4CCn5c(nnc5C(F)(F)F)C4)CC3)c2c1", "note": "[Example 52, 2,6-dimethyl-4-(4-(3-(trifluoromethyl)-5,6,7,8-tetrahydro-[1,2,4]triazolo[4,3-a]pyrazine-7-carbonyl)piperidin-1-yl)quinoline-3-carbonitrile]", "IC50": 118},
      {"smiles": "C[C@@H]1CN(c2c(C#N)c(C(F)F)nc3ccc(Cl)cc23)CC[C@@H]1C(=O)N1CCn2c(nnc2C(F)(F)F)C1", "note": "(single isomer, unassigned) [Example 57a]", "IC50": 41},
      {"smiles": "N#Cc1cnc2cc(Br)ccc2c1N1CCC(C(=O)N2CCn3c(nnc3C(F)(F)F)C2)CC1", "note": "[Example 40, 7-bromo-4-(4-{[3-(trifluoromethyl)-5,6-dihydro[1,2,4]triazolo[4,3-a]pyrazin-7(8H)-yl]carbonyl}piperidin-1-yl)quinoline-3-carbonitrile]", "IC50": 12},
      {"smiles": "N#Cc1cnc2ccc(Cl)cc2c1N1CC[C@H](C(=O)N2CCn3c(nnc3C(F)(F)F)C2)[C@H](C2CC2)C1", "note": "[Example 76c, 6-chloro-4-[(3S,4S)-3-cyclopropyl-4-{[3-(trifluoromethyl)-5,6-dihydro[1,2,4]triazolo[4,3-a]pyrazin-7(8H)-yl]carbonyl}piperidin-1-yl]quinoline-3-carbonitrile]", "IC50": 0.29},
      {"smiles": "Cc1nc2ccc(Cl)cc2c(N2CC[C@H](C(=O)N3CCc4n[nH]c(C(F)(F)F)c4C3)[C@H](C)C2)c1C#N", "note": "[Example 92, 6-chloro-2-methyl-4-[(3S,4S)-3-methyl-4-{[3-(trifluoromethyl)-2,4,6,7-tetrahydro-5H-pyrazolo[4,3-c]pyridin-5-yl]carbonyl}piperidin-1-yl]quinoline-3-carbonitrile]", "IC50": 35},
      {"smiles": "C[C@@H]1CN(c2c(C#N)cnc3cc(OC(F)F)ccc23)CC[C@@H]1C(=O)N1CCn2c(nnc2C(F)(F)F)C1", "note": "[Example 62, 7-(difluoromethoxy)-4-[(3S,4S)-3-methyl-4-{[3-(trifluoromethyl)-5,6-dihydro[1,2,4]triazolo[4,3-a]pyrazin-7(8H)-yl]carbonyl}piperidin-1-yl]quinoline-3-carbonitrile]", "IC50": 1.1},
      {"smiles": "C[C@@H]1CN(c2c(C#N)cnc3cc(OCC(F)F)ccc23)CC[C@@H]1C(=O)N1CCn2c(nnc2C(F)(F)F)C1", "note": "[Example 102, 7-(2,2-difluoroethoxy)-4-[(3S,4S)-3-methyl-4-{[3-(trifluoromethyl)-5,6-dihydro[1,2,4]triazolo[4,3-a]pyrazin-7(8H)-yl]carbonyl}piperidin-1-yl]quinoline-3-carbonitrile]", "IC50": 0.33},
      {"smiles": "COc1ccc2c(N3CC[C@H](C(=O)N4CCn5c(nnc5C(F)(F)F)C4)[C@H](C)C3)c(C#N)cnc2c1F", "note": "[Example 2, 8-fluoro-7-methoxy-4-[(3S,4S)-3-methyl-4-{[3-(trifluoromethyl)-5,6-dihydro[1,2,4]triazolo[4,3-a]pyrazin-7(8H)-yl]carbonyl}piperidin-1-yl]quinoline-3-carbonitrile]", "IC50": 0.96},
      {"smiles": "C[C@@H]1CN(c2c(C#N)cnc3cc(-c4ccccc4)ccc23)CC[C@@H]1C(=O)N1CCn2c(nnc2C(F)(F)F)C1", "note": "[Example 90, 4-((3S,4S)-3-methyl-4-(3-(trifluoromethyl)-5,6,7,8-tetrahydro-[1,2,4]triazolo[4,3-a]pyrazine-7-carbonyl)piperidin-1-yl)-7-phenylquinoline-3-carbonitrile]", "IC50": 0.2},
      {"smiles": "C[C@@H]1CN(c2c(C#N)cnc3ncc(Br)cc23)CC[C@@H]1C(=O)N1CCn2c(nnc2C(F)(F)F)C1", "note": "[Example 30, 6-bromo-4-[(3S,4S)-3-methyl-4-{[3-(trifluoromethyl)-5,6-dihydro[1,2,4]triazolo[4,3-a]pyrazin-7(8H)-yl]carbonyl}piperidin-1-yl]-1,8-naphthyridine-3-carbonitrile]", "IC50": 30}
    ]}
  ]
}
